assay: Log P by HPLC on reversed phase columns (EEC directive 79/831 Annex V.A8); assay type: physicochemical; details: not given
Protocol: Measurement of Log P values was performed according to EEC directive 79/831 Annex V.A8 by HPLC (High Performance Liquid Chromatography) on reversed phase columns with the following methods:
[^a] Log P value is determined by measurement of LC-UV, in an acidic range, with 0.1% formic acid in water and acetonitrile as eluent (linear gradient from 10% acetonitrile to 95% acetonitrile).
[^b] Log P value is determined by measurement of LC-UV, in a neutral range, with 0.001 molar ammonium acetate solution in water and acetonitrile as eluent (linear gradient from 10% acetonitrile to 95% acetonitrile).
[^c] Log P value is determined by measurement of LC-UV, in an acidic range, with 0.1% phosphoric acid and acetonitrile as eluent (linear gradient from 10% acetonitrile to 95% acetonitrile).
Calibration was done with straight-chain alkan-2-ones (with 3 to 16 carbon atoms) with known Log P values (measurement of Log P values using retention times with linear interpolation between successive alkanones). Lambda-max-values were determined using UV-spectra from 200 nm to 400 nm and the peak values of the chromatographic signals.

| LogP [a] | LogP [b] | LogP [c] | SMILES |
| --- | --- | --- | --- |
| 3.25^[a]; | 3.22^[b] | – | C#CCOc1ccc(Nc2c(-c3ccc(F)cc3Cl)c(C)nn2C)c(F)c1 [Example I-29] |
| 2.95^[a]; | 2.92^[b] | – | C=CCOc1cc(F)c(Nc2c(-c3ccc(Cl)nc3)c(C)nn2C)c(F)c1 [Example I-21] |
| 2.77^[a] | – | – | C#CCOc1ccc(-c2c(C)nn(C)c2Nc2c(F)cc(OCC#C)cc2F)c(F)c1 [Example I-27] |
| 4.08^[a] | – | – | C=CCOc1ccc(F)cc1Nc1c(-c2ccc(F)cc2Br)c(C)nn1C [Example I-44] |
| 3.71^[a] | – | – | C=CCOc1ccc(C#N)cc1N=C=S [Z-ii-19] |
| 4.30^[a] | – | – | C=CCOc1ccc(F)c(N=C=S)c1 [Z-ii-07] |
| 3.49^[a] | – | – | C#CCOc1cc(F)cc(F)c1Nc1c(-c2c(F)cc(Cl)cc2F)c(C)nn1C [Example I-60] |
| 4.06^[a] | – | – | C=CCOc1ccc(N=C=S)cc1F [Z-ii-06] |
| 3.61^[a]; | 3.56^[b]; | 3.50^[c] | C=CCOc1ccc(Nc2c(-c3ccc(F)cc3Cl)c(C)nn2C)cc1F [Example I-35] |
| 2.85^[a] | – | – | C#CCOc1cc(F)c(Nc2c(-c3c(F)cc(OC)cc3F)c(C)nn2C)c(F)c1 [Example I-62] |
| 3.44^[a] | – | – | C#CCOc1cc(F)c(Nc2c(-c3ccc(Cl)cc3Cl)c(C)nn2C)c(F)c1 [Example I-09] |
| 3.74^[a]; | 3.66^[b]; | 3.60^[c] | C=CCOc1cc(F)c(Nc2c(-c3ccc(F)cc3Cl)c(C)nn2C)cc1F [Example I-34] |
| 2.74^[a] | – | – | C#CCOc1cc(F)c(Nc2c(-c3ccc(OC)cc3F)c(C)nn2C)c(F)c1 [Example I-17] |
| 3.65^[a] | – | – | C#CCOc1cc(F)cc(F)c1NC(=S)C(C(C)=O)c1ccc(F)cc1Cl (centres unmarked) [Z-ix-03] |
| 4.30^[a] | – | – | C#CCOc1cc(C)ccc1Nc1c(-c2ccc(Cl)cc2Cl)c(C)nn1C [Example I-58] |
| 4.72^[a]; 4.72^[b] | 4.72^[a]; 4.72^[b] | – | C=CCOc1ccc(N=C=S)c(Cl)c1 [Z-ii-13] |
| 3.51^[a]; | 3.52^[b] | – | C=CCOc1ccc(Nc2c(-c3ccc(F)cc3Cl)c(C)nn2C)cc1 [Example I-30] |
| 3.33^[a]; | 3.23^[b]; | 3.20^[c] | C#CCOc1cc(F)c(Nc2c(-c3ccc(F)cc3Cl)c(C)nn2C)cc1F [Example I-33] |
| 2.96^[a] | – | – | C#CCOc1cc(F)cc(F)c1Nc1c(-c2ccccc2F)c(C)nn1C [Example I-07] |
| 4.32^[a] | – | – | C=CCOc1cc(C)ccc1Nc1c(-c2ccc(F)cc2Cl)c(C)nn1C [Example I-52] |
| 3.13^[a] | – | – | C#CCOc1ccc(C#N)cc1N=C=S [Z-ii-20] |
| 3.09^[a]; | – | 2.90^[c] | C#CCOc1cc(F)c(Nc2c(-c3ccc(F)cc3Cl)c(C)nn2C)c(F)c1 [Example I-03] |
| 3.82^[a] | – | – | C#CCOc1cc(C)ccc1N=C=S [Z-ii-18] |
| 3.17^[a] | – | – | C#CCOc1cc(F)c(Nc2c(-c3ccc(OCC=C)cc3F)c(C)nn2C)c(F)c1 [Example I-24] |
| 2.88^[a] | – | – | C#CCOc1ccc(-c2c(C)nn(C)c2Nc2c(F)cc(F)cc2OCC#C)c(F)c1 [Example I-26] |
| 3.99 | 3.96 | – | C#CCOc1ccc(N=C=S)c(Cl)c1 [Z-ii-12] |
| 3.83^[a] | – | – | C#CCOc1cc(C)ccc1Nc1c(-c2ccc(F)cc2Cl)c(C)nn1C [Example I-53] |
| 3.17^[a]; | 3.14^[b]; | 3.10^[c] | C#CCOc1ccc(Nc2c(-c3ccc(F)cc3Cl)c(C)nn2C)cc1F [Example I-36] |

same assay, conditions: LC-UV, acidic range, 0.1% formic acid in water and acetonitrile as eluent; read-out: LogP [a]

| SMILES | chromatographic logP |
| --- | --- |
| CC(=O)Cc1ccc(O)cc1F [1-(2-fluoro-4-hydroxyphenyl)acetone] | 1.13 |

same assay, conditions: reversed phase HPLC columns, LC-UV, acidic range, 0.1% formic acid in water and acetonitrile as eluent; read-out: LogP [a]

| chromatographic logP | SMILES |
| --- | --- |
| 3.3 | C#CCOc1cc(F)cc(F)c1Nc1c(-c2ccc(OCC=C)cc2F)c(C)nn1C [Example I-22, 4-[4-(Allyloxy)-2-fluorophenyl]-N-[2,4-difluoro-6-(prop-2-yn-1-yloxy)phenyl]-1,3-dimethyl-1H-pyrazol-5-amine] |

From patent publication US10246420B2, “Pyrazole derivatives” (BAYER CROPSCIENCE AKTIENGESELLSCHAFT, priority 2014, dated 2019)
